This data set is described as follows: PAMPA permeability assay. It counts as in vitro ADME. The text has this:
Parallel artificial membrane permeability (PAMPA) assay is a non-cell based assay designed to predict in vivo biological membrane permeability of drugs in early stage of drug discovery. The 96-well Corning Gentest Pre-coated PAMPA Plate System (catalog no. 353015) was used to perform the assay. The Corning Gentest Pre-coated PAMPA plate system was designed by 96-well insert system with a […] PVDF (polyvinylidene fluoride) filter plate which has been pre-coated with structured tri-layers of phospholipids (lipid/oil/lipid) and a matched receiver microplate.
Donor solutions of test compounds (300 μL, 20 μM in PBS/MeOH 90:10) were added to each well of the donor plate. 200 μL of PBS/MeOH 90:10 was added to each well of the acceptor plate. The acceptor plate was coupled with the donor plate and incubated for 5 hours at room temperature (RT) without agitation. In each plate, compounds were tested in triplicate. At the end of the incubation, drug concentration in the initial donor solution, acceptor and the donor wells were determined using LC/MS/MS. A five (5) points standard curve from 0.1 to 1000 nM for each test compound were prepared. Analyte samples were diluted to within standard curve concentration with ACN/H2O 50:50 prior analysis.
All samples were analyzed by electrospray ionization (ESI) liquid chromtograph/mass spectrometry (LC/MS) system utilizing Sciex 5500 quadropule ion trap (Qtrap) mass spectrometry with Shidmazu Nexera X2 UHPLC. The LC-MS/MS instrument monitored each of the test compound in the study based of their respective mass-to-charge (m/z) transitions and MS parameters. Chromatographic separation was achieved on Phenomenex Luna C18 column (50×2.0 mm, 3 μm particle size) by using a gradient elution: mobile phase A contains 0.1% formic acid in water and mobile phase B contains 0.1% formic acid in acetonitrile; A/B (99:1) from 0 to 1 minutes; to A/B (1:99) from 1 to 4 minutes; A/B (1:99) from 4 to 8 minutes; to A/B (99:1) from 8 to 8.20 minutes; A/B (99:1) from 8.2 to 9 minutes. The flow rate was 0.4 mL/min and the column temperature was maintained at 35° C. and autosampler temperature at 4° C. For detection, the electrospray ionization operated in the positive mode using multiple reaction monitoring (MRM).
Data acquisition, and peak integrations were obtained by Analyst® Version 1.7.1 (Sciex) operating with Windows® (Microsoft). The standard curve regressions and sample concentrations were generated and calculated by Analyst®. Concentrations in the sample solutions were determined based on the measured peak area ratios from the response of the analyte to the internal standard with reference to the standard calibration curve. All sample calculations were calculated using a linear regression with 1/x2 weighting (where x is the concentration of given calibration standard level).
Permeability of the test compounds was calculated using the following formula:
Where: • A=filter area=[…] • VA=acceptor well volume (0.2 mL) • VD=donor well volume […], • t=incubation time=5 hours=18000 seconds, • CA(t)=compound concentration in acceptor well at time t (nM), • CD(t)=compound concentration in donor well at time t (nM), and […]

For the setting “20 μM donor in PBS/MeOH 90:10, 5 hours at room temperature”, `[2H]C([2H])([2H])C([2H])([2H])C(=O)NCCN1Cc2nc(NCc3c(F)cc(F)cc3F)ccc2C1=O` [Compound 204, N-(2-(5-oxo-2-((2,4,6-trifluorobenzyl)amino)-5,7-dihydro-6H-pyrrolo[3,4-b]pyridin-6-yl)ethyl)propenamide-d5] registered a Papp at 5 h, 20 µM of 1.07 ×10⁻⁶ cm/s. Besides, where the note is “deuterated vs non-deuterated (Compounds 37 and 73, respectively)”, the “permeability compared to non-deuterated counterparts” value is on record as “improved permeability”.

Values taken from US20250066353A1, “VANIN-1 INHIBITORS” (ATHOS THERAPEUTICS, INC., priority 2023, published 2025).
